According to patent publication US8791113B2, “2,4-diaryl-substituted [1,8] naphthyridines as kinase inhibitors for use against cancer” (Merck Patent GmbH, priority 2010, dated 2014):
pIC50: −log10 of the molar value.

Experiments:
[1] = molecular target: T1, GST-ALK5 (TGF-beta receptor kinase) (Homo sapiens, UniProt P36897); experiment: In-vitro (enzyme) kinase flashplate assay: GST-ALK5 phosphorylation of GST-SMAD2 with 33P-ATP; format: biochemical; conditions: 384-well flashplate kinase assay, GST-ALK5 / GST-SMAD2, 33P-ATP, 30° C., 45 min; read-out: TβR activity (Example 50)
T1 sequence (P36897 34-503): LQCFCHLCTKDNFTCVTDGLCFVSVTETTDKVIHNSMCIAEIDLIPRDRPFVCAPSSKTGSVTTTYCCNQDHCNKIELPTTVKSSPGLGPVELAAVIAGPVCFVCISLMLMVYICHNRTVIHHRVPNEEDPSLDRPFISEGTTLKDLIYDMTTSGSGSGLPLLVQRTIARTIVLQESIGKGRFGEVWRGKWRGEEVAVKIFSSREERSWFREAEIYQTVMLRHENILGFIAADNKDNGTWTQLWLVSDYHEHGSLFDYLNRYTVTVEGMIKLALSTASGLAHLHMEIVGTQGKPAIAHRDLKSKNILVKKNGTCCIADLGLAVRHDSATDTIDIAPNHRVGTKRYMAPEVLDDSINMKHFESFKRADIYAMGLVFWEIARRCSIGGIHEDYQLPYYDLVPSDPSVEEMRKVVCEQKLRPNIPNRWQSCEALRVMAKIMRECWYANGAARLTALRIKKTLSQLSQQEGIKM
Experimental: In-vitro (Enzyme) Assay for Determination of the Efficacy of Inhibitors of the Inhibition of TGF-Beta-Mediated Effects
The kinase assay was carried out as 384-well flashplate assay. 31.2 nM of GST-ALK5, 439 nM of GST-SMAD2 and 3 mM of ATP (with 0.3 μCi of ^33P-ATP/well) were incubated in a total volume of 35 μl (20 mM of HEPES, 10 mM of MgCl2, 5 mM of MnCl2, 1 mM of DTT, 0.1% of BSA, pH 7.4) without or with test substance (5-10 concentrations) at 30° C. for 45 min. The reaction was stopped using 25 μl of 200 mM EDTA solution, filtered with suction at room temperature after 30 min, and the wells were washed with 3 times 100 μl of 0.9% NaCl solution. Radioactivity was measured in the TopCount. The IC50 values were calculated using RS1.

[2] = test system: TGF-beta-induced phosphorylation of Smad2 (Ser465/467) and Smad3 (Ser423/425) in Mv1-Lu cells; experiment: Inhibition of Smad2/3 phosphorylation in Mv1Lu cells (PathScan Phospho-Smad2 ELISA); format: cell-based, mink Mustela vison; conditions: Neogale vison, Mv1-Lu cells, TGF-beta 1 5 ng/ml, Phospho-Smad2/3 ELISA, read-out: TβR activity (Example 51)
Experimental: Inhibition of Smad2/3 Phosphorylation in Mv1 Lu Cells by TGF-Beta Receptor I Kinase Inhibitors
This assay was used to determine the inhibitory potency of compounds on TGF-beta-induced phosphorylation of Smad2 (Ser465/467) and Smad3 (Ser423/425). Mv1-Lu cells (lung epithelial cell line from mink Mustela vison; ATCC number: CCL-64) were seeded in DMEM (Invitrogen) supplemented with 10% fetal bovine serum (Pan Biotech) at a defined cell density in 24-well or 96-well plates (24-well plate: 1.5×10^5 cells per well; 96-well plate: 4×10^4 cells per well). Cell cultures were incubated in DMEM at 37° C. and 10% CO2. On the next day, the medium was replaced and cells were serum-starved for 16-20 hours. The following day, serial dilutions of compounds were added to the wells, pre-incubated for 1.5 hrs before recombinant TGF-beta 1 ligand (final concentration 5 ng/ml; R&D systems) was added. After one hour of ligand stimulation, lysates were prepared and analyzed using an enzyme-linked immunosorbent assay kit (PathScan Phospho-Smad2 Kit, Cell Signaling Technologies). The ELISA detects phosphorylated Smad2 as well as phosphorylated Smad3 with the phospho-specific antibody. TGF-beta stimulated cells and unstimulated cells served as positive and negative controls (100% and background control). The concentration of the vehicle DMSO was kept constant at 0.2% (v/v) in all wells. Dose-response relationships were fitted using curve fitting algorithms of the RS1 statistics software package (Brooks Automation Inc. RS/1- Statistical Tools Handbook. Release 6.2) to determine the concentration at which half-maximal inhibition (IC50) of Smad2/3 phosphorylation was achieved.

Compound | pIC50 [1] | pIC50 [2]
CC(=O)Nc1ccc2cnccc2c1-c1cc(-c2ccccc2F)nc2ncccc12 [Compound 85, N-{5-[2-(2-Fluoro-phenyl)-[1,8]naphthyridin-4-yl]-isoquinolin-6-yl}-acetamide] | 5.00 to 6.00 | < 5.00
CCN(CC)CCOc1ccc(-c2cc(-c3cc(Cl)ccc3F)nc3ncccc23)c2ccncc12 [Compound 86, (2-{5-[2-(5-Chloro-2-fluoro-phenyl)-[1,8]naphthyridin-4-yl]-isoquinolin-8-yloxy}-ethyl)-diethyl-amine] | > 6.00 | > 6.00
Nc1nccc2c(-c3cc(-c4ccccc4)nc4ncccc34)nccc12 [Compound 87, 5-(2-Phenyl-[1,8]naphthyridin-4-yl)-[2,6]naphthyridin-1-ylamine] | > 6.00 | > 6.00
[O-][n+]1ccc2c(-c3cc(-c4ccccc4F)nc4ncccc34)nccc2c1 [Compound 88, 2-(2-Fluoro-phenyl)-4-(6-oxy-[2,6]naphthyridin-1-yl)-[1,8]naphthyridine] | < 5.00 | < 5.00
O=c1[nH]cc(-c2cc(-c3cc(Cl)ccc3F)nc3ncccc23)c2ccncc12 [Compound 89, 4-[2-(5-Chloro-2-fluoro-phenyl)-[1,8]naphthyridin-4-yl]-2H-[2,7]naphthyridin-1-one] | > 6.00 | > 6.00
Nc1nccc2c(-c3cc(-c4ccccc4Cl)nc4ncccc34)nccc12 [Compound 90, 5-[2-(2-Chloro-phenyl)-[1,8]naphthyridin-4-yl]-[2,6]naphthyridin-1-ylamine] | > 6.00 | 5.00 to 6.00
O=c1c2cnccc2c(-c2cc(-c3cc(Cl)ccc3F)nc3ncccc23)cn1CCN1CCCC1 [Compound 91, 4-[2-(5-Chloro-2-fluoro-phenyl)-[1,8]naphthyridin-4-yl]-2-(2-pyrrolidin-1-yl-ethyl)-2H-[2,7]naphthyridin-1-one] | > 6.00 | > 6.00
CCN(CC)CCNc1ccc(-c2cc(-c3cc(Cl)ccc3F)nc3ncccc23)c2ccncc12 [Compound 92, N′-{5-[2-(5-Chloro-2-fluoro-phenyl)-[1,8]naphthyridin-4-yl]-isoquinolin-8-yl}-N,N-diethyl-ethane-1,2-diamine] | > 6.00 | > 6.00
CCN(CC)CCOc1ncc(-c2cc(-c3cc(Cl)ccc3F)nc3ncccc23)c2ccncc12 [Compound 98, (2-{4-[2-(5-Chloro-2-fluoro-phenyl)-[1,8]naphthyridin-4-yl]-[2,7]naphthyridin-1-yloxy}-ethyl)-diethyl-amine] | > 6.00 | > 6.00
COc1ccc(-c2cc(-c3cc(F)ccc3F)nc3ncccc23)c2ccncc12 [Compound 99, 2-(2,5-Difluoro-phenyl)-4-(8-methoxy-isoquinolin-5-yl)-[1,8]naphthyridine] | > 6.00 | > 6.00
Fc1ccc(Cl)cc1-c1cc(-c2cnc(OCCN3CCCC3)c3cnccc23)c2cccnc2n1 [Compound 100, 2-(5-Chloro-2-fluoro-phenyl)-4-[1-(2-pyrrolidin-1-yl-ethoxy)-[2,7]naphthyridin-4-yl]-[1,8]naphthyridine] | > 6.00 | > 6.00
c1coc(-c2cc(-c3c[nH]c4cnccc34)c3cccnc3n2)c1 [Compound 101, 2-Furan-2-yl-4-(1H-pyrrolo[2,3-c]pyridin-3-yl)-[1,8]naphthyridine] | > 6.00 | > 6.00
Fc1ccc(Cl)cc1-c1cc(-c2ccc(OCCN3CCCC3)c3cnccc23)c2cccnc2n1 [Compound 102, 2-(5-Chloro-2-fluoro-phenyl)-4-[8-(2-pyrrolidin-1-yl-ethoxy)-isoquinolin-5-yl]-[1,8]naphthyridine] | > 6.00 | > 6.00
CCN(CC)CCOc1ccc(-c2cc(-c3cc(F)ccc3F)nc3ncccc23)c2ccncc12 [Compound 103, (2-{5-[2-(2,5-Difluoro-phenyl)-[1,8]naphthyridin-4-yl]-isoquinolin-8-yloxy}-ethyl)-diethyl-amine] | > 6.00 | > 6.00
CCN(CC)CCn1cc(-c2cc(-c3cc(Cl)ccc3F)nc3ncccc23)c2ccncc2c1=O [Compound 104, 4-[2-(5-Chloro-2-fluoro-phenyl)-[1,8]naphthyridin-4-yl]-2-(2-diethylamino-ethyl)-2H-[2,7]naphthyridin-1-one] | 5.00 to 6.00 | 5.00 to 6.00
O=c1[nH]cc(-c2cc(-c3cc(F)ccc3F)nc3ncccc23)c2ccncc12 [Compound 107, 4-[2-(2,5-Difluoro-phenyl)-[1,8]naphthyridin-4-yl]-2H-[2,7]naphthyridin-1-one] | > 6.00 | > 6.00
Cc1occc1-c1cc(-c2c[nH]c3cnccc23)c2cccnc2n1 [Compound 108, 2-(2-Methyl-furan-3-yl)-4-(1H-pyrrolo[2,3-c]pyridin-3-yl)-[1,8]naphthyridine] | > 6.00 | > 6.00
Nc1nccc2c(-c3cc(-c4c(F)cccc4F)nc4ncccc34)nccc12 [Compound 109, 5-[2-(2,6-Difluoro-phenyl)-[1,8]naphthyridin-4-yl]-[2,6]naphthyridin-1-ylamine] | > 6.00 | < 5.00
O=c1cc(-c2cc(-c3cc(Cl)ccc3F)nc3ncccc23)c2ccncc2n1CCN1CCOCC1 [Compound 110, 4-[2-(5-Chloro-2-fluoro-phenyl)-[1,8]naphthyridin-4-yl]-1-(2-morpholin-4-yl-ethyl)-1H-[1,7]naphthyridin-2-one] | 5.00 to 6.00 | < 5.00
Fc1ccccc1-c1cc(-c2ccnc3cnccc23)c2cccnc2n1 [Compound 111, 4-[2-(2-Fluoro-phenyl)-[1,8]naphthyridin-4-yl]-[1,7]naphthyridine] | > 6.00 | < 5.00
Fc1ccc(Cl)cc1-c1cc(-c2cc(OCCN3CCOCC3)nc3cnccc23)c2cccnc2n1 [Compound 112, 4-[2-(5-Chloro-2-fluoro-phenyl)-[1,8]naphthyridin-4-yl]-2-(2-morpholin-4-yl-ethoxy)-[1,7]naphthyridine] | > 6.00 | > 6.00
Nc1nccc2c(-c3cc(-c4ccccc4F)nc4ncccc34)ccnc12 [Compound 113, 4-[2-(2-Fluoro-phenyl)-[1,8]naphthyridin-4-yl]-[1,7]naphthyridin-8-ylamine] | > 6.00 | > 6.00
Nc1ccc2c(-c3nccc4c(N)nccc34)cc(-c3ccccc3F)nc2n1 [Compound 114, 5-(5-Amino-[2,6]naphthyridin-1-yl)-7-(2-fluoro-phenyl)-[1,8]naphthyridin-2-ylamine] | > 6.00 | > 6.00
COc1cnc(-c2cc(-c3ccccc3F)nc3ncccc23)c2ccncc12 [Compound 115, 2-(2-Fluoro-phenyl)-4-(4-methoxy-[2,6]naphthyridin-1-yl)-[1,8]naphthyridine] | > 6.00 | > 6.00
Cn1cc(-c2cnc3nc(-c4ccccc4F)cc(-c4nccc5c(N)nccc45)c3c2)cn1 [Compound 116, 5-[2-(2-Fluoro-phenyl)-6-(1-methyl-1H-pyrazol-4-yl)-[1,8]naphthyridin-4-yl]-[2,6]naphthyridin-1-ylamine] | < 5.00 | < 5.00
Nc1ccc2c(-c3cccc4c(N)nccc34)cc(-c3ccccc3F)nc2n1 [Compound 117, 5-(1-Amino-isoquinolin-5-yl)-7-(2-fluoro-phenyl)-[1,8]naphthyridin-2-ylamine] | > 6.00 | > 6.00
